A short description of data set [1]: Rat B/P (brain disposition). The settings on record: male, Sprague-Dawley; for concentration at 0.5 h / Kp uu at 0.5 h / Kp at 0.5 h: time point 0.5 h; for concentration at 0.5 h / Kp at 0.5 h / concentration at 1 h / Kp at 1 h: mean ± stdev; for Kp uu at 0.5 h / Kp at 0.5 h / Kp uu at 1 h / Kp at 1 h: brain/plasma; for Kp uu at 0.5 h / Kp uu at 1 h: fubrain from brain homogenate; for Kp at 0.5 h / Kp at 1 h: n = 3; for concentration at 1 h / Kp uu at 1 h / Kp at 1 h: time point 1.0 h. The format is in vivo, male Sprague-Dawley rats. As for the experimental part: Brain disposition was evaluated for each compound in male Sprague-Dawley rats (n=3, standard body weight). […] Isolated plasma and brain homogenates were extracted by standard protein precipitation in acetonitrile, containing internal standard, followed by LC-MS/MS analysis using an optimized analytical method. Concentrations of test compound in plasma and brain were quantified against matrix matched calibration standards. The total plasma and brain concentration data are presented in Table 7 alongside the calculated brain Kp (total brain concentration:total plasma concentration ratio).

Data set [2] in a line: Free fraction in plasma (equilibrium dialysis). The format is in vitro ADME, male Sprague-Dawley rat. The settings on record: rat plasma, 1 μM, 5 h at 37° C. The procedure: The free fractions in male Sprague-Dawley rat or female Gottingen minipig plasma (fuplasma) and rat brain homogenate (fubrain) were determined by equilibrium dialysis using 96-well HTD-dialysis plates with dialysis membranes (molecular weight cut off 12-14 KDa). One side of the HTD-dialysis plate was loaded with matrix (plasma or brain homogenate) and the other side with buffer (100 mM sodium phosphate buffer, pH 7.4). Test compounds were dissolved in DMSO then spiked (5 μL of 0.2 mM) into blank (995 μL) plasma or diluted brain homogenate (1:4 ratio in phosphate buffer) giving a final nominal concentration 1 μM (≤0.5% DMSO). The matrices were loaded into respective chambers and equilibrated against phosphate buffer for 5 h at 37° C. (in a humidified air incubator with 5% CO2 with shaking). Samples from both chambers (buffer and plasma or brain homogenate) were aliquoted to fresh 96-well polypropylene plates then matrix matched using an equal volume of opposite blank matrix before extraction with cold solvent (3 volumes acetonitrile) containing an appropriate bioanalytical internal standard. After centrifugation (20 min, 3200 g, 4° C.) the supernatants were diluted with appropriate volumes of water and compound concentrations were quantified by LC/MS-MS against matrix matched calibration standards. The fuplasma and fubrain were calculated as a percent free according to equation 4 below.
Where [F] is the analyte concentration on the buffer (receiver) side of the membrane; [T] is the analyte concentration on the plasma or brain (donor) side of the membrane; [TO] is the analyte concentration in the plasma or brain sample at time zero; D is matrix dilution factor which is determined as 4 for brain matrix and 1 for plasma matrix in these assays.

A further data set concerns the target T1, LRRK2 WT (Homo sapiens, UniProt Q5S007).
T1 construct: comprises residue 970 to 2527 of the full length human wild-type LRRK2 kinase; purchased Invitrogen (Life Technologies Corporation)
Briefly: LRRK2 wild-type kinase activity assay (LanthaScreen TR-FRET). The format is biochemical. The settings on record: 1 nM LRRK2 WT, 1.3 mM ATP, 3.5 h at 30° C.; n≥2 tests. The procedure: (§1) LRRK2 kinase activity was measured using a LanthaScreen kinase activity assay available from Invitrogen (Life Technologies Corporation). The assay is a homogeneous time resolved-fluorescence resonance energy transfer (TR-FRET) assay that measures phosphorylation of a fluorescein-labelled peptide substrate Fluorescein-ERM LRRKtide obtainable from Life Technologies Corporation as a result of LRRK2 kinase activity. The phosphorylated peptide is recognized by a terbium-labelled phospho-specific anti-LRRKtide antibody (pLRRKtide antibody), obtainable from Life Technologies Corporation and, subsequently, the phosphorylated LRRKtide can be quantified by the extent of TR-FRET between the terbium donor and fluorescein acceptor. The LRRK2 kinase was obtained from Invitrogen (Life Technologies Corporation) and comprises residue 970 to 2527 of the full length human wild-type LRRK2 kinase, or a similar sequence with the G2019S mutation. As discussed above, this mutation increases the kinase activity relative to the wild type. The kinase reactions were performed in a 20 μL volume in 384-well plates. […] The mixture was further incubated for 30 minutes at RT. […] The measurement was repeated 30 times for fluorescein and 30 times for terbium emission with a 1000 μs time window between repeats. TR-FRET measurements were performed on a Biotek Synergy plate. The TR-FRET signal was calculated as the emission-ratio at 520 nm over 495 nm. The TR-FRET ratio readout for test compounds was normalized to 0% inhibition corresponding to TR-FRET ratio measured in control wells with no inhibition of the kinase activity and 100% inhibition corresponding to TR-FRET ratio measured in control wells with inhibitor. […] C is the IC50 value and D is the Hill slope coefficient. IC50 estimates were obtained from independent experiment and the logarithmic average was calculated.

The target in a further data set is T2, LRRK2 G2019S (Homo sapiens, UniProt Q5S007, G2019S).
T2 construct: purchased Invitrogen (Life Technologies Corporation)
Briefly: LRRK2 G2019S kinase activity assay (LanthaScreen TR-FRET). The format is biochemical. The settings on record: 250 pM LRRK2 G2019S, 1.3 mM ATP, 3 h at 30° C.; n≥2 tests. The procedure:
as §1

[3] abbreviates: brain, oral gavage 5 mg/kg, n = 3, read-out: Total brain concentration.
[4] abbreviates: plasma, oral gavage 5 mg/kg, n = 3, read-out: Total plasma concentration.
Where [5] appears, read: brain, oral gavage 10 mg/kg, n = 3, read-out: Total brain concentration.
Where [6] appears, read: po, 10 mg/kg, oral gavage 10 mg/kg.
Setting [7] is: plasma, oral gavage 10 mg/kg, n = 3, read-out: Total plasma concentration.

Like-named read-outs stand apart in the source and are kept apart here.

T1 sequence (Q5S007 970-2527): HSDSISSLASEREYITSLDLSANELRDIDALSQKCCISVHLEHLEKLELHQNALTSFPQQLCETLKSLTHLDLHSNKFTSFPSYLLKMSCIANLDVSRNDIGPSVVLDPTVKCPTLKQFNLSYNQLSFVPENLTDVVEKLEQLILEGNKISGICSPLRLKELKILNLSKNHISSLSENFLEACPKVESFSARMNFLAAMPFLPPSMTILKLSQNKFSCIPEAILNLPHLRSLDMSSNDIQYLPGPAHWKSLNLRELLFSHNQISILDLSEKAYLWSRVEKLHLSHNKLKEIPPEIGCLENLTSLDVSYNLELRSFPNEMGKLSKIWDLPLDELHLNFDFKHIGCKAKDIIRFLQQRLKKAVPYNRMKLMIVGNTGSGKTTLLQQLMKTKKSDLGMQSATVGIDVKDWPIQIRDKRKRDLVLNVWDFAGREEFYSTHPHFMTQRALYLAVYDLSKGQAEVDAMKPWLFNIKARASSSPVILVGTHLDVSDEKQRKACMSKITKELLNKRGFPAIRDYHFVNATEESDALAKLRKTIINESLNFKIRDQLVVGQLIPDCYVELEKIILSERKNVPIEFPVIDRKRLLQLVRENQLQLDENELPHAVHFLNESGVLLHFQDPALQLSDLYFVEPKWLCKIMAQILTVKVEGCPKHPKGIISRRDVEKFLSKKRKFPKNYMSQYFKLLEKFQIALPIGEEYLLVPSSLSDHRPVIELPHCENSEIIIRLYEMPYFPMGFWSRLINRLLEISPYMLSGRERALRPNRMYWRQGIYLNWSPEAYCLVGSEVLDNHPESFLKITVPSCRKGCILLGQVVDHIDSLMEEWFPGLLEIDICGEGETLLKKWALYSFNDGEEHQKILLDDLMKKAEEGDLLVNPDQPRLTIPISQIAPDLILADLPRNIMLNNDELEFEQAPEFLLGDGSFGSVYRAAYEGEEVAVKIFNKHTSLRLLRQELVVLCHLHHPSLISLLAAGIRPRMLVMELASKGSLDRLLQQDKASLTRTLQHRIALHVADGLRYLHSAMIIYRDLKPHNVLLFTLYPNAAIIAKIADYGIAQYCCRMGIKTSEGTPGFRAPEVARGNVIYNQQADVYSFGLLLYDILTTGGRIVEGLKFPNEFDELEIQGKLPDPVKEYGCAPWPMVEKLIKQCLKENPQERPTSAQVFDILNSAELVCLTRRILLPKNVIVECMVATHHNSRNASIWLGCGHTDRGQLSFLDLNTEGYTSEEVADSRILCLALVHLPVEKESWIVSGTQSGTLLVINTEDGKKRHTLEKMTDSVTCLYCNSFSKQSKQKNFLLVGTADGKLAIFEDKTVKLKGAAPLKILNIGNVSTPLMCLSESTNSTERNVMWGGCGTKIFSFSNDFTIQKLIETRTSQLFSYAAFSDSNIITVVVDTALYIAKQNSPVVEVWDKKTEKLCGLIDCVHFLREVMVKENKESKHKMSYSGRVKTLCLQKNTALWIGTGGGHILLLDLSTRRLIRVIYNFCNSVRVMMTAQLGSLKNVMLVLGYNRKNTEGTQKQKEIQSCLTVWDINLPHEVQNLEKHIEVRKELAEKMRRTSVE
T2 sequence (Q5S007 970-2527 G2019S): as the sequence (Q5S007 970-2527) above, with G1050S counted along it

Regarding `Cc1c2c(nn1[C@@H]1CC1(F)F)OCCCn1nc(Cl)c3cnc(nc31)N2` (single isomer, unassigned) [Example 40, (+)-(R) or (S)-8-Chloro-2-(2,2-difluorocyclopropyl)-3-methyl-2,4,12,13-tetrahydro-11H-5,7-(azenometheno)dipyrazolo[3,4-b:5′,1′-g][1]oxa[4,6,8]triazacycloundecine], the concentration at 0.5 h came to 138 ± 12 ng/g in data set [1] (setting [3]) and 72 ± 8 ng/mL in data set [1] (setting [4]). Also, in data set [1] (oral gavage 5 mg/kg), the Kp uu at 0.5 h was determined as 0.72 ± 0.08. Besides, in data set [1] (oral gavage 5 mg/kg), the Kp at 0.5 h amounted to 1.93 ± 0.22. Besides, the “fuplasma (% free)” value in data set [2] came out at 12.7 % free. The values for the IC50 on LRRK2 WT and at LRRK2 G2019S were 28 nM and 12 nM, respectively.

With `Cc1c2c(nn1[C@H]1CCOC[C@]1(C)F)OCCCn1nc(Cl)c3cnc(nc31)N2` (single isomer, unassigned) [Example 47, (+)-8-Chloro-2-((3R,4S) or (3S,4R)-3-Fluoro-3-methyltetrahydro-2H-pyran-4-yl)-3-methyl-2,4,12,13-tetrahydro-11H-5,7-(azenometheno)dipyrazolo[3,4-b:5′,1′-g][1]oxa[4,6,8]triazacycloundecine], the concentration at 0.5 h in data set [1] (setting [3]) came to 235 ± 119 ng/g; in data set [1] (setting [4]) it was 83 ± 27 ng/mL. For the same compound, the Kp uu at 0.5 h in data set [1] (oral gavage 5 mg/kg) is 0.57 ± 0.17. This compound also gave a Kp at 0.5 h in data set [1] (oral gavage 5 mg/kg) of 2.69 ± 0.83. Besides, the “fuplasma (% free)” value in data set [2] was 24.8 % free. The IC50 was 13 nM at LRRK2 WT and 3.1 nM on LRRK2 G2019S.

For `Cc1c2c(nn1[C@@H]1CCOC3(CC3)C1)OCCCn1nc(Cl)c3cnc(nc31)N2` (single isomer, unassigned) [Example 53, (+)-(R) or (S)-8-Chloro-3-methyl-2-(4-oxaspiro[2.5]octan-7-yl)-2,4,12,13-tetrahydro-11H-5,7-(azenometheno)dipyrazolo[3,4-b:5′,1′-g][1]oxa[4,6,8]triazacycloundecine], the concentration at 1 h was 363 ± 138 ng/g in data set [1] (setting [3]) and 203 ± 67 ng/mL in data set [1] (setting [4]). In addition, in data set [1] (oral gavage 5 mg/kg), the Kp uu at 1 h came out at 0.65 ± 0.06. The compound further came in with a Kp at 1 h in data set [1] (oral gavage 5 mg/kg) of 1.77 ± 0.16. In data set [2], the “fuplasma (% free)” value turned out to be 17.1 % free. The figures for the IC50 on LRRK2 WT and on LRRK2 G2019S were 3.2 nM and 1.3 nM, respectively.

Regarding `Cc1c2c(nn1C1CCOCC1)OCCCn1nc(C(F)(F)F)c3cnc(nc31)N2` [Example 5, 3-Methyl-2-(tetrahydro-2H-pyran-4-yl)-8-(trifluoromethyl)-2,4,12,13-tetrahydro-11H-5,7-(azenometheno)dipyrazolo[3,4-b:5′,1′-g][1]oxa[4,6,8]triazacycloundecine], the concentration at 1 h in data set [1] (setting [5]) was 744 ± 281 ng/g; in data set [1] (setting [7]) it was 336 ± 96 ng/mL. Moreover, the Kp at 1 h in data set [1] (oral gavage 10 mg/kg) amounted to 2.19 ± 0.25. The compound also had a Kp uu at 1 h in data set [1] (setting [6]) of 0.29 ± 0.03. For the same compound, the “fuplasma (% free)” value in data set [2] is listed as 32.2 % free. For the same compound, the IC50 on LRRK2 WT was determined as 23 nM; on LRRK2 G2019S, 7.4 nM.

For the compound `Cc1c2c(nn1C1CCOCC1)OCCCn1nc(Br)c3cnc(nc31)N2` [Example 6, 8-Bromo-3-methyl-2-(tetrahydro-2H-pyran-4-yl)-2,4,12,13-tetrahydro-11H-5,7-(azenometheno)dipyrazolo[3,4-b:5′,1′-g][1]oxa[4,6,8]triazacycloundecine], the concentration at 1 h in data set [1] (setting [5]) was found to be 1460 ± 244 ng/g; in data set [1] (setting [7]), 738 ± 24 ng/mL. Besides, the Kp at 1 h in data set [1] (oral gavage 10 mg/kg) amounted to 1.97 ± 0.27. The Kp uu at 1 h in data set [1] (setting [6]) stood at 0.44 ± 0.06. The “fuplasma (% free)” value in data set [2] is listed as 34.3 % free.

As to `Cc1c2c(nn1C1CCOCC1)OCCCn1nc(C3CC3)c3cnc(nc31)N2` [Example 7, 8-Cyclopropyl-3-methyl-2-(tetrahydro-2H-pyran-4-yl)-2,4,12,13-tetrahydro-11H-5,7-(azenometheno)dipyrazolo[3,4-b:5′,1′-g][1]oxa[4,6,8]triazacycloundecine], the concentration at 1 h in data set [1] (setting [5]) came to 949 ± 463 ng/g; in data set [1] (setting [7]), 1550 ± 527 ng/mL. In data set [1] (oral gavage 10 mg/kg), the Kp uu at 1 h is 0.28 ± 0.1. The same compound yielded a Kp at 1 h in data set [1] (oral gavage 10 mg/kg) of 0.63 ± 0.23. Besides, in data set [2], the “fuplasma (% free)” value came to 28.7 % free. Besides, the results for the IC50 on LRRK2 WT and on LRRK2 G2019S were 210 nM and 63 nM, respectively.

Consider `Clc1nn2c3nc(ncc13)Nc1c(nn(C3CCOCC3)c1C1CC1)OCCC2` [Example 10, 8-Chloro-3-cyclopropyl-2-(tetrahydro-2H-pyran-4-yl)-2,4,12,13-tetrahydro-11H-5,7-(azenometheno)dipyrazolo[3,4-b:5′,1′-g][1]oxa[4,6,8]triazacycloundecine], for which the values for the concentration at 1 h in data set [1] (setting [5]) and in data set [1] (setting [7]) were 502 ± 92 ng/g and 314 ± 83 ng/mL, respectively. Also, the Kp at 1 h in data set [1] (oral gavage 10 mg/kg) came to 1.62 ± 0.16. Moreover, the Kp uu at 1 h in data set [1] (setting [6]) worked out at 0.38 ± 0.04. For the same compound, in data set [2], the “fuplasma (% free)” value is recorded as 30.2 % free. Further, the IC50 on LRRK2 WT turned out to be 19 nM; on LRRK2 G2019S, 6.2 nM.

Take `Cc1c2c(nn1C1(C)COC1)OCCCn1nc(Cl)c3cnc(nc31)N2` [Example 14, 8-Chloro-3-methyl-2-(3-methyloxetan-3-yl)-2,4,12,13-tetrahydro-11H-5,7-(azenometheno)dipyrazolo[3,4-b:5′,1′-g][1]oxa[4,6,8]triazacycloundecine]: the concentration at 1 h in data set [1] (setting [5]) was determined as 421 ± 168 ng/g; in data set [1] (setting [7]), 280 ± 102 ng/mL. In data set [1] (oral gavage 10 mg/kg), this compound returned a Kp at 1 h of 1.52 ± 0.37. Also, the Kp uu at 1 h in data set [1] (setting [6]) came to 0.3 ± 0.07. Besides, the “fuplasma (% free)” value in data set [2] was 38.0 % free. For the same compound, the IC50 at LRRK2 WT is 16 nM; at LRRK2 G2019S it was 4 nM.

As to `Cc1c2c(nn1[C@H]1CC[C@H](F)CC1)OCCCn1nc(Cl)c3cnc(nc31)N2` [Example 25, 8-Chloro-2-((1r,4r)-4-fluorocyclohexyl)-3-methyl-2,4,12,13-tetrahydro-11H-5,7-(azenometheno)dipyrazolo[3,4-b:5′,1′-g][1]oxa[4,6,8]triazacycloundecine], the concentration at 1 h in data set [1] (setting [5]) was 110 ± 18 ng/g; in data set [1] (setting [7]), 38 ± 6 ng/mL. This compound yielded a Kp at 1 h in data set [1] (oral gavage 10 mg/kg) of 2.87 ± 0.04. The compound also displayed a Kp uu at 1 h in data set [1] (setting [6]) of 0.65 ± 0.01. In addition, the “fuplasma (% free)” value in data set [2] was 12.0 % free. Moreover, the IC50 at LRRK2 WT stood at 16 nM; at LRRK2 G2019S it was 5.1 nM.

The values are drawn from patent US11780851B2, “LRRK2 inhibitors” (H. Lundbeck A/S, priority 2021, dated 2023).
